{
  "source": "patent US5567736A",
  "about": "“Use of a choline salt to inhibit fatty liver in patients receiving total parenteral nutrition” (priority 1994, dated 1996)",
  "key": {"[1]": {"details": "all subjects; baseline 5.2±2.1, normal 11.4+/-3.7 nmol/ml", "excerpt": "(§1) Four subjects who were known to have low plasma free choline levels and hepatic steatosis were studied. The subjects included 3 females aged 45, 50 and 72 years and 1 person. Two subjects had short bowel syndrome from Crohn's disease, one had radiation enteritis and the fourth had pseudo-obstruction. The subjects had received home TPN for 9.7±4.7 years. Their TPN consisted of 2-3L of 15-25% dextrose solution with 3.0-3.5% amino acids, electrolytes, trace elements and vitamins. All subjects received 19.5±3.7 kcal-kg day actual body weight (range 16-24 kcal/kg/d). This level of support varied between subjects depending upon individual variation in oral intake and intestinal absorption.\n(§2) Plasma-free choline level, serum SGOT, SGPT and total cholesterol levels were measured at each visit. Plasma free choline was measured by gas chromatography and mass spectrophotometry (See Jenden DJ, Roch M, Booth RA. Simultaneous measurements of endogenous and deuterium-labeled tracer variants of choline and acetylcholine in subpicomole quantities by gas chromatography spectrometry. Anal Biochem. 55:438-48, 1973; and Freeman JJ, Choi RL, Jenden DJ. Plasma choline: its turnover and exchange with brain choline. J. Neurochem. 24:729-34, 1975.)\nThe hepatic transaminase levels and cholesterol were determined using standard automated techniques. […]"}, "[2]": {"test_system": "hepatic steatosis (liver)", "excerpt": "as §1, with “females” for “females aged 45, 50 and 72 years”\nIntravenous lipid (Intralipid 20%, Clintec, Deerfield, Ill.) supplied 42.5%±25.7% of daily intravenous caloric intake. […] The TPN solution for each subject included 2.3-5 g of methionine on a daily basis depending upon the total amino acid concentration. The vitamin preparation included 5 μg vitamin B12 and 400 μg folate on a daily basis. All subjects received their TPN nightly as one dose over a period of 10-12 hours.\nas §2\nComputed tomography (CT) was used as a non-invasive method for quantifying hepatic fat density. Limited non-contrast CT scanning of the liver and spleen was performed using a GE 9800 CT scanner (Milwaukee, Wis.). Multiple contiguous 1-cm axial sections at 1-cm intervals were obtained. Attenuation values for regions of interest in the liver and spleen were generated from multiple representative sections. An average (mean) CT number in Hounsfield units (HU) was then calculated for each organ. Liver density was determined using two currently acceptable methods: a) the average absolute liver CT number, and b) the liver-spleen differential obtained by subtracting the average spleen CT number from the average liver CT number (to correct for interscan variability).\nIn the normal state, the liver and spleen maintain a fairly constant relationship in terms of relative CT numbers on non-contrast scans. On the main scanner employed at our institution, normal liver density corresponds to approximately 45 HU in absolute terms, and normal liver attenuation values exceed those of the spleen by approximately 8 HU (i.e., a liver-spleen differential of approximately positive 8 HU). Fat has a distinctly lower attenuation than other tissues and thus a distinct appearance on the CT image, as well as a distinctly low CT number in HU. Hepatic density and hepatic steatosis are therefore inversely related. Fatty liver was defined as an absolute CT number </=45 HU, or a liver-spleen differential of </= positive 8.0 HU (with 0-to-positive 8 HU representing borderline fatty change and </=0 HU corresponding to marked fatty infiltration)."}, "[3]": {"excerpt": "as §1, with “females” for “females aged 45, 50 and 72 years”\nas §2", "remark": "listed apart in the source"}, "[4]": {"details": "Subject #4, pharmacokinetic studies preceding the 6 week choline infusion"}, "total serum cholesterol": {"test_system": "total serum cholesterol", "details": "during the study", "method": "as §2\n(§3) The hepatic transaminase levels and cholesterol were determined using standard automated techniques. Plasma phospholipid bound choline was measured at baseline, at the end of the 6 week nightly choline infusion and 4 weeks later following extraction as described by Folch et al (Folch J, Lees M, Stanley GHS. A simple method for the isolation and purification of total lipids from animal tissue. J. Bio Chem. 226:497-509, 1957.) and hydrolysis as described by Jope and Jenden (Jope RS, Jenden DJ. Choline and phospholipid metabolism and the synthesis of acetylcholine in rat brain. J. Neurosci Res. 4:69-82, 1979.). All blood samples were obtained on the subjects following an overnight fast and 3-5 hours following completion of the TPN."}, "[5]": {"test_system": "hepatic transaminase levels", "details": "during the study, except Subject #1; three of four subjects had normal AST and ALT at baseline", "method": "as §2, §3"}, "[6]": {"details": "concentrations as high as 10 g/l"}, "[7]": {"details": "various TPN nutrient solutions, at least 30 days"}},
  "note": "Several values for one entry are separate records, joined by “and”; a condition that tells them apart may be missing. Identical values can stand only once.",
  "data": [
    {"molecule": "C[N+](C)(C)CCO.[Cl-]", "note": "[choline chloride]", "values": [
      {"measurement": "plasma free choline level after one week of choline supplementation", "setting": "[1]", "value": "increased into the normal range"},
      {"measurement": "effect on amino acid availability of the TPN solution", "setting": "[6]", "value": "does not affect"},
      {"measurement": "effect on pH of the TPN solution", "setting": "[6]", "value": "does not affect"},
      {"measurement": "stability in TPN solution", "setting": "[6]", "value": "at least 30 days"},
      {"measurement": "stability in various TPN nutrient solutions", "setting": "various TPN nutrient solutions", "value": "at least 30 days"},
      {"measurement": "effect on TPN solution amino acid concentrations", "setting": "[7]", "value": "no adverse affects"},
      {"measurement": "effect on TPN solution pH", "setting": "[7]", "value": "no adverse affects"},
      {"measurement": "effect on TPN solution turbidity", "setting": "[7]", "value": "no adverse affects"},
      {"measurement": "Liver-spleen Hounsfield unit differential, 4 Wks post choline", "setting": "[2]; 4 weeks after choline discontinued, b48 Subject 1 (baseline -47.0), b50 Subject 2 (-0.7), b52 Subject 3 (0.3)", "value": "10.6 Hounsfield unit and 15.7 Hounsfield unit and 15.0 Hounsfield unit"},
      {"measurement": "Liver-spleen Hounsfield unit differential, 10 weeks post choline supplementation", "setting": "[2]; Subject 4 (baseline -9.4), 10 weeks post choline supplementation", "value": -6.3, "unit": "Hounsfield unit"},
      {"measurement": "liver-spleen CT number differential, normalisation", "setting": "[2]; concurrent scans, six weeks of choline", "value": "assumed a normal or near-normal relationship"},
      {"measurement": "hepatic steatosis four weeks after choline was discontinued", "setting": "[2]; follow-up post-supplementation CT", "value": "had not yet returned to baseline"},
      {"measurement": "improvement of CT number difference (liver-spleen subtraction method), average", "setting": "[2]; initial CT two weeks after choline started vs baseline, 4 subjects, p=0.002", "value": "20+/-16.5 HU"},
      {"measurement": "hepatic steatosis ten weeks after choline supplemented TPN discontinued", "setting": "[2]; one subject (printed #3)", "value": "had recurred"},
      {"measurement": "liver density ten weeks after choline supplemented TPN discontinued", "setting": "[2]; one subject (printed #3)", "value": "appeared identical to the baseline CT scan"},
      {"measurement": "liver-spleen differential ten weeks after choline supplemented TPN discontinued", "setting": "[2]; one subject (printed #3)", "value": "returned to its original, pre-choline supplementation value"},
      {"measurement": "hepatic steatosis during six weeks of choline supplementation", "setting": "[2]; six weeks of choline, all four subjects", "value": "completely resolved in all four subjects"},
      {"measurement": "liver density at initial CT scan", "setting": "[2]; two weeks after choline supplementation initiated", "value": "marked increase in liver density"},
      {"measurement": "hepatic steatosis at initial CT scan", "setting": "[2]; two weeks after choline supplementation initiated, all 4 subjects", "value": "decreased significantly in all 4 subjects"},
      {"measurement": "CT number difference (liver-spleen subtraction method), mean after choline", "setting": "[2]; two weeks of choline, 4 subjects, baseline -14.2+/-22.3 HU, p=0.002", "value": "8.4 +/-10.3 HU"},
      {"measurement": "tolerability after dose increased back to 1 g/day", "setting": "[3]; Subject #4, from day 30 for remainder of study, 1 g/day", "value": "without complaints"},
      {"measurement": "side effect requiring dose adjustment", "setting": "[3]; Subject #4, upon awakening at end of choline infusion, dose decreased from 2 g/day to 1 g/day, then 1 g every other day", "value": "mild nausea"},
      {"measurement": "side effects or dose adjustment in other subjects", "setting": "[3]; subjects other than #4", "value": "No other subject experienced any side effects or required a dose adjustment"},
      {"measurement": "plasma free choline level tolerated without any side effects", "setting": "[4]", "value": "≤ 230", "unit": "nmol/mL"},
      {"measurement": "total serum cholesterol", "setting": "total serum cholesterol", "value": "No change"},
      {"measurement": "hepatic transaminase levels", "setting": "[5]", "value": "No significant decreases"}
    ]}
  ]
}
